Tests used:
microsomal stability = assay type: in vitro ADME, Rat; settings: for microsomal stability (% at time): Rat
Protocol: The microsomal stability of N-(2,6-dichloro-3,5-dimethoxyphenyl)-1-(6-((4-(4-ethylpiperazin-1-yl)phenyl)amino)pyrimidin-4-yl)-1H-benz[d]imidazol-2-amine synthesized in Example 1, as a representative compound of the present invention, was evaluated.

HER2 = HER2 (Homo sapiens, UniProt P04626); test: kinase inhibition activity, full kinase panel; assay type: biochemical; settings: 1 μM of the compound; read-out: kinase activity inhibited (% inhibition)
Protocol: (§1) In order to measure the inhibition activity (% inhibition) of the compound of the present invention against protein kinases, a biochemical assay was conducted using a full kinase panel consisting of 340 kinases. As a representative compound of the present invention, N-(2,6-dichloro-3,5-dimethoxyphenyl)-1-(6-((4-(4-ethylpiperazin-1-yl)phenyl)amino)pyrimidin-4-yl)-1H-benz[d]imidazol-2-amine synthesized in Example 1 was used.
(§2) The kinases whose activity is inhibited by 50% or more when treated with 1 μM of the compound of Example 1 are listed in Table 1.

FMS = FMS (Homo sapiens, UniProt P07333); test: kinase inhibition activity, full kinase panel; assay type: biochemical; settings: 1 μM of the compound; read-out: kinase activity inhibited (% inhibition)
Protocol: as §1, §2

FGFR1 = FGFR1 (Homo sapiens, UniProt P11362); test: kinase inhibition activity, full kinase panel; assay type: biochemical; settings: 1 μM of the compound; read-out: kinase activity inhibited (% inhibition)
Protocol: as §1, §2

SIK2 = SIK2 (Homo sapiens, UniProt Q9H0K1); test: kinase inhibition activity, full kinase panel; assay type: biochemical; settings: 1 μM of the compound; read-out: kinase activity inhibited (% inhibition)
Protocol: as §1, §2

SIK3 = SIK3 (Homo sapiens, UniProt Q9Y2K2); test: kinase inhibition activity, full kinase panel; assay type: biochemical; settings: 1 μM of the compound; read-out: kinase activity inhibited (% inhibition)
Protocol: as §1, §2

FGFR2 = FGFR2 (Homo sapiens, UniProt P21802); test: kinase inhibition activity, full kinase panel; assay type: biochemical; settings: 1 μM of the compound; read-out: kinase activity inhibited (% inhibition)
Protocol: as §1, §2

BMX = BMX (Homo sapiens, UniProt P51813); test: kinase inhibition activity, full kinase panel; assay type: biochemical; settings: 1 μM of the compound; read-out: kinase activity inhibited (% inhibition)
Protocol: as §1, §2

FGFR4 = FGFR4 (Homo sapiens, UniProt P22455); test: kinase inhibition activity, full kinase panel; assay type: biochemical; settings: 1 μM of the compound; read-out: kinase activity inhibited (% inhibition)
Protocol: as §1, §2

FLT3 = FLT3 (Homo sapiens, UniProt P36888); test: kinase inhibition activity, full kinase panel; assay type: biochemical; settings: 1 μM of the compound; read-out: kinase activity inhibited (% inhibition)
Protocol: as §1, §2

LCK = LCK (Homo sapiens, UniProt P06239); test: kinase inhibition activity, full kinase panel; assay type: biochemical; settings: 1 μM of the compound; read-out: kinase activity inhibited (% inhibition)
Protocol: as §1, §2

Hck = Hck (Homo sapiens, UniProt P08631); test: kinase inhibition activity, full kinase panel; assay type: biochemical; settings: 1 μM of the compound; read-out: kinase activity inhibited (% inhibition)
Protocol: as §1, §2

BLK = BLK (Homo sapiens, UniProt P51451); test: kinase inhibition activity, full kinase panel; assay type: biochemical; settings: 1 μM of the compound; read-out: kinase activity inhibited (% inhibition)
Protocol: as §1, §2

EGFR = EGFR (Homo sapiens, UniProt P00533); test: kinase inhibition activity, full kinase panel; assay type: biochemical; settings: 1 μM of the compound; read-out: kinase activity inhibited (% inhibition)
Protocol: as §1, §2

DYRK1 = DYRK1 (Homo sapiens, UniProt Q13627); test: kinase inhibition activity, full kinase panel; assay type: biochemical; settings: 1 μM of the compound; read-out: kinase activity inhibited (% inhibition)
Protocol: as §1, §2

ACK1 = ACK1 (Homo sapiens, UniProt Q07912); test: kinase inhibition activity, full kinase panel; assay type: biochemical; settings: 1 μM of the compound; read-out: kinase activity inhibited (% inhibition)
Protocol: as §1, §2

c-Kit = c-Kit (Homo sapiens, UniProt P10721); test: kinase inhibition activity, full kinase panel; assay type: biochemical; settings: 1 μM of the compound; read-out: kinase activity inhibited (% inhibition)
Protocol: as §1, §2

DDR1 = DDR1 (Homo sapiens, UniProt Q08345); test: kinase inhibition activity, full kinase panel; assay type: biochemical; settings: 1 μM of the compound; read-out: kinase activity inhibited (% inhibition)
Protocol: as §1, §2

c-Src = c-Src (Homo sapiens, UniProt P12931); test: kinase inhibition activity, full kinase panel; assay type: biochemical; settings: 1 μM of the compound; read-out: kinase activity inhibited (% inhibition)
Protocol: as §1, §2

YES = YES (Homo sapiens, UniProt P07947); test: kinase inhibition activity, full kinase panel; assay type: biochemical; settings: 1 μM of the compound; read-out: kinase activity inhibited (% inhibition)
Protocol: as §1, §2

TAOK2 = TAOK2 (Homo sapiens, UniProt Q9UL54); test: kinase inhibition activity, full kinase panel; assay type: biochemical; settings: 1 μM of the compound; read-out: kinase activity inhibited (% inhibition)
Protocol: as §1, §2

TRKA = TRKA (Homo sapiens, UniProt P04629); test: kinase inhibition activity, full kinase panel; assay type: biochemical; settings: 1 μM of the compound; read-out: kinase activity inhibited (% inhibition)
Protocol: as §1, §2

Fyn = Fyn (Homo sapiens, UniProt P06241); test: kinase inhibition activity, full kinase panel; assay type: biochemical; settings: 1 μM of the compound; read-out: kinase activity inhibited (% inhibition)
Protocol: as §1, §2

LYN B = LYN B (Homo sapiens, UniProt P07948); test: kinase inhibition activity, full kinase panel; assay type: biochemical; settings: 1 μM of the compound; read-out: kinase activity inhibited (% inhibition)
Protocol: as §1, §2

TNK1 = TNK1 (Homo sapiens, UniProt Q13470); test: kinase inhibition activity, full kinase panel; assay type: biochemical; settings: 1 μM of the compound; read-out: kinase activity inhibited (% inhibition)
Protocol: as §1, §2

LYN = LYN (Homo sapiens, UniProt P07948); test: kinase inhibition activity, full kinase panel; assay type: biochemical; settings: 1 μM of the compound; read-out: kinase activity inhibited (% inhibition)
Protocol: as §1, §2

MEKK2 = MEKK2 (Homo sapiens, UniProt Q9Y2U5); test: kinase inhibition activity, full kinase panel; assay type: biochemical; settings: 1 μM of the compound; read-out: kinase activity inhibited (% inhibition)
Protocol: as §1, §2

FGFR3 = FGFR3 (Homo sapiens, UniProt P22607); test: kinase inhibition activity, full kinase panel; assay type: biochemical; settings: 1 μM of the compound; read-out: kinase activity inhibited (% inhibition)
Protocol: as §1, §2

[1] = biological target: (Homo sapiens, UniProt P09769); test: kinase inhibition activity, full kinase panel; assay type: biochemical; settings: 1 μM of the compound; read-out: kinase activity inhibited (% inhibition)
Protocol: as §1, §2

TIE2 = TIE2 (Homo sapiens, UniProt Q02763); test: kinase inhibition activity, full kinase panel; assay type: biochemical; settings: 1 μM of the compound; read-out: kinase activity inhibited (% inhibition)
Protocol: as §1, §2

SIK1 = SIK1 (Homo sapiens, UniProt P57059); test: kinase inhibition activity, full kinase panel; assay type: biochemical; settings: 1 μM of the compound; read-out: kinase activity inhibited (% inhibition)
Protocol: as §1, §2

ROS = ROS (Homo sapiens, UniProt P08922); test: kinase inhibition activity, full kinase panel; assay type: biochemical; settings: 1 μM of the compound; read-out: kinase activity inhibited (% inhibition)
Protocol: as §1, §2

DYRK1B = DYRK1B (Homo sapiens, UniProt Q9Y463); test: kinase inhibition activity, full kinase panel; assay type: biochemical; settings: 1 μM of the compound; read-out: kinase activity inhibited (% inhibition)
Protocol: as §1, §2

DDR2 = DDR2 (Homo sapiens, UniProt Q16832); test: kinase inhibition activity, full kinase panel; assay type: biochemical; settings: 1 μM of the compound; read-out: kinase activity inhibited (% inhibition)
Protocol: as §1, §2

ABL2 = ABL2 (Homo sapiens, UniProt P42684); test: kinase inhibition activity, full kinase panel; assay type: biochemical; settings: 1 μM of the compound; read-out: kinase activity inhibited (% inhibition)
Protocol: as §1, §2

MEKK3 = MEKK3 (Homo sapiens, UniProt Q99759); test: kinase inhibition activity, full kinase panel; assay type: biochemical; settings: 1 μM of the compound; read-out: kinase activity inhibited (% inhibition)
Protocol: as §1, §2

DYRK2 = DYRK2 (Homo sapiens, UniProt Q92630); test: kinase inhibition activity, full kinase panel; assay type: biochemical; settings: 1 μM of the compound; read-out: kinase activity inhibited (% inhibition)
Protocol: as §1, §2

FLT4 = FLT4 (Homo sapiens, UniProt P35916); test: kinase inhibition activity, full kinase panel; assay type: biochemical; settings: 1 μM of the compound; read-out: kinase activity inhibited (% inhibition)
Protocol: as §1, §2

ALK = ALK (Homo sapiens, UniProt Q9UM73); test: kinase inhibition activity, full kinase panel; assay type: biochemical; settings: 1 μM of the compound; read-out: kinase activity inhibited (% inhibition)
Protocol: as §1, §2

LYN B, sequence (P07948 1-491 isoform P07948-2): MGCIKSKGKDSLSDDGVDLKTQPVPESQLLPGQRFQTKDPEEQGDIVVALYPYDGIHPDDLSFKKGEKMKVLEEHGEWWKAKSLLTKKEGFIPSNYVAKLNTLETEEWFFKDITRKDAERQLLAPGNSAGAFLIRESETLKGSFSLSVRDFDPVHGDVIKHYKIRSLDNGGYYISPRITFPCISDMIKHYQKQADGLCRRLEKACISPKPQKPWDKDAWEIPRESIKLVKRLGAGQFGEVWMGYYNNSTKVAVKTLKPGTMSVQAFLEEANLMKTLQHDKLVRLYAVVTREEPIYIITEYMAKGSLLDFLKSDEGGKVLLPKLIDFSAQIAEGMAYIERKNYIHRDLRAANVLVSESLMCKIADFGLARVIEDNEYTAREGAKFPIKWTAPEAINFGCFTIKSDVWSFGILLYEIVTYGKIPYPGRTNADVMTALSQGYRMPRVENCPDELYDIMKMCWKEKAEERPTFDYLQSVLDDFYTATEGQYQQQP
ALK, sequence (Q9UM73 19-1620): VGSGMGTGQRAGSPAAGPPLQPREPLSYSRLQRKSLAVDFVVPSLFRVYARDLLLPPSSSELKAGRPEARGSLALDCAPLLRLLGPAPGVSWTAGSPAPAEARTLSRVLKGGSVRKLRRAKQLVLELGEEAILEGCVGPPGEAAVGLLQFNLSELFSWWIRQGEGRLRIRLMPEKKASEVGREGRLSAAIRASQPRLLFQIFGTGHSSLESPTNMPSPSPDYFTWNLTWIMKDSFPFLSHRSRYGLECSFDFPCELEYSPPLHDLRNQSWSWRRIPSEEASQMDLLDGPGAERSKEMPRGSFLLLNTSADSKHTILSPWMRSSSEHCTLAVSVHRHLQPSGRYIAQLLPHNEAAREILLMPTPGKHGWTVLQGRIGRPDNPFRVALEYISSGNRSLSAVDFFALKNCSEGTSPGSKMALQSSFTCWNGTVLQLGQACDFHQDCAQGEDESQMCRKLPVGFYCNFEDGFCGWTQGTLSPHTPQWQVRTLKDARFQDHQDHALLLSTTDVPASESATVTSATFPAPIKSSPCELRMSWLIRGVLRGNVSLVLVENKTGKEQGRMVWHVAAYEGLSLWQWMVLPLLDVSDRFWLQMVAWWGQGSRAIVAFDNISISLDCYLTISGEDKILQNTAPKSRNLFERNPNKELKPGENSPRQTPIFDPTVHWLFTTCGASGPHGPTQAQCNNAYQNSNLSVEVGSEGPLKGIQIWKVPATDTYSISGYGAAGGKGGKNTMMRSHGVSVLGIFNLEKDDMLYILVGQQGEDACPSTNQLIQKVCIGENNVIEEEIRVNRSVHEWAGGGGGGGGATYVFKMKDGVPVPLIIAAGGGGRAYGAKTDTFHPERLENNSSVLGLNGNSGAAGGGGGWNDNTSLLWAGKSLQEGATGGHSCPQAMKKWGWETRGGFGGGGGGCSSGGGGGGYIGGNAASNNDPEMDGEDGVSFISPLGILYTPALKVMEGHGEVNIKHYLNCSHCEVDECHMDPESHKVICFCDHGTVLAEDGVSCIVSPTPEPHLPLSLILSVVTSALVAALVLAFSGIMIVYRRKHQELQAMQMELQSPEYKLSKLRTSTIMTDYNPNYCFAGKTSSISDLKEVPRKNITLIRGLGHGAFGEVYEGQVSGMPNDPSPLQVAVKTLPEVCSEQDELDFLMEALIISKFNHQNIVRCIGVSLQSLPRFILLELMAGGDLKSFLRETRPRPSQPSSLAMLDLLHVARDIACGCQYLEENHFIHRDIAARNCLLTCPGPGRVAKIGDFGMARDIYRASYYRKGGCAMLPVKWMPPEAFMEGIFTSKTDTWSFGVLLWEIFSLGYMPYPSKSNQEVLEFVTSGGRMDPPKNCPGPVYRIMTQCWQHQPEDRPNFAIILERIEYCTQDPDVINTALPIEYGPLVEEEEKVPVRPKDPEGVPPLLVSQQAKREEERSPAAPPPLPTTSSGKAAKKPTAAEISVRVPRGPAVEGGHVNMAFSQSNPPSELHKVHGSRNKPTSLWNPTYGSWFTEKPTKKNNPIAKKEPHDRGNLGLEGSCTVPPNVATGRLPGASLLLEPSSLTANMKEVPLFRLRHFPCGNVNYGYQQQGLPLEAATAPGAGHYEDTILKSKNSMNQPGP
LYN, sequence (P07948 whole entry): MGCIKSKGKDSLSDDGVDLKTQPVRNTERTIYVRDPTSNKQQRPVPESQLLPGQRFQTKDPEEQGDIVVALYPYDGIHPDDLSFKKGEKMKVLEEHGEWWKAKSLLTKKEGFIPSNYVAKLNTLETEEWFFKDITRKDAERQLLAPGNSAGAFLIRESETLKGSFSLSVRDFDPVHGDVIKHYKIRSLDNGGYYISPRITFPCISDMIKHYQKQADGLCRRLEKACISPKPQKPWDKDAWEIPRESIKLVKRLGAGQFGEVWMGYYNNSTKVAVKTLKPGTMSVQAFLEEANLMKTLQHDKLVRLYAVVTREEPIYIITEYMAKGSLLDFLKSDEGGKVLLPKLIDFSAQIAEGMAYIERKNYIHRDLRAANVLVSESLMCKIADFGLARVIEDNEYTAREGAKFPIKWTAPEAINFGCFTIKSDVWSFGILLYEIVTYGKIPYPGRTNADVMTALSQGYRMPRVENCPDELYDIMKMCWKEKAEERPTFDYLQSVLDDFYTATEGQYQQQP
FGFR2, sequence (P21802 22-821): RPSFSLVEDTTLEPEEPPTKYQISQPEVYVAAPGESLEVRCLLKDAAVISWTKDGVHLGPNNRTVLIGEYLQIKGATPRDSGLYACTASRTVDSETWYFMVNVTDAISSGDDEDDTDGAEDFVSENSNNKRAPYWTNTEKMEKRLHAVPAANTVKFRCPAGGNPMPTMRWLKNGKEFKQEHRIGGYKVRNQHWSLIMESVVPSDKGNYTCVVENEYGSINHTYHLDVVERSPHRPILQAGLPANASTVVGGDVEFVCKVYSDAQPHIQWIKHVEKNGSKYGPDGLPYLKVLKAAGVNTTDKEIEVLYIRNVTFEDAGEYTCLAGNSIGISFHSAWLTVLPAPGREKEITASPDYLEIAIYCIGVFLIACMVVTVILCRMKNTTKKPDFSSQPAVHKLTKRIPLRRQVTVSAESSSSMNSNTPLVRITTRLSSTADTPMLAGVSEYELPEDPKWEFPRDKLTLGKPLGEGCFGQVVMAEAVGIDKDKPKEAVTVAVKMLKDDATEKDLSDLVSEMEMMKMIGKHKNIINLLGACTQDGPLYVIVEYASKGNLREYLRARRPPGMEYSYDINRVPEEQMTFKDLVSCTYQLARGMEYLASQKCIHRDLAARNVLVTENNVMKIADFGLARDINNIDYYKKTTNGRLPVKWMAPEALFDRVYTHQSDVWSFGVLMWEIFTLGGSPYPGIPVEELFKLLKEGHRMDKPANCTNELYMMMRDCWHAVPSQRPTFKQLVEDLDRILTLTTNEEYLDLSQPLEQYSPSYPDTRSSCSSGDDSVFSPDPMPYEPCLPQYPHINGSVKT
c-Kit, sequence (P10721 26-976): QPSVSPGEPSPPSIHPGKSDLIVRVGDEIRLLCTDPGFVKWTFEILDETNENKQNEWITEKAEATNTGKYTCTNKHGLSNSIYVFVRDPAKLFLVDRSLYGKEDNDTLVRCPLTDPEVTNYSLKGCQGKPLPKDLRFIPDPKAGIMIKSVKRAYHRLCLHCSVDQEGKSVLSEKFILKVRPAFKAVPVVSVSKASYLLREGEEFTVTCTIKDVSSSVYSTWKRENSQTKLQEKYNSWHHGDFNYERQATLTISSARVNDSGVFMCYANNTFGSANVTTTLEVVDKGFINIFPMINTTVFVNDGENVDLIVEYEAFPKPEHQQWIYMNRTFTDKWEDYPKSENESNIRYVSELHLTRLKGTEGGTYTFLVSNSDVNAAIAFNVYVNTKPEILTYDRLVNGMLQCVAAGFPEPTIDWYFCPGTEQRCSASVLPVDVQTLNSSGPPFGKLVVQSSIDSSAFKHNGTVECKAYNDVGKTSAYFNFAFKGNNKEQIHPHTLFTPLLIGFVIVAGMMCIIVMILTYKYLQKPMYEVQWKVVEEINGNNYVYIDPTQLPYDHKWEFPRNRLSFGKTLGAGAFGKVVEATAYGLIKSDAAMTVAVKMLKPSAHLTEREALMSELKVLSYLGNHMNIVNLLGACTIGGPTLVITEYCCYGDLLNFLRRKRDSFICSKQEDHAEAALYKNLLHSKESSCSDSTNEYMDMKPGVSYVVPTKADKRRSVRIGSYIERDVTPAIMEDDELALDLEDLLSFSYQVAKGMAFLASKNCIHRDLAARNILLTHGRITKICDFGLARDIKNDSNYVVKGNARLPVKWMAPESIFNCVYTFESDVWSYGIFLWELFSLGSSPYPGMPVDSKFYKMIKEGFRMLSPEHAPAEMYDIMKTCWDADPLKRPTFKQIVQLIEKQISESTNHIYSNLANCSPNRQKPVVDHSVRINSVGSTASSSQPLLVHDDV
BMX, sequence (P51813 whole entry): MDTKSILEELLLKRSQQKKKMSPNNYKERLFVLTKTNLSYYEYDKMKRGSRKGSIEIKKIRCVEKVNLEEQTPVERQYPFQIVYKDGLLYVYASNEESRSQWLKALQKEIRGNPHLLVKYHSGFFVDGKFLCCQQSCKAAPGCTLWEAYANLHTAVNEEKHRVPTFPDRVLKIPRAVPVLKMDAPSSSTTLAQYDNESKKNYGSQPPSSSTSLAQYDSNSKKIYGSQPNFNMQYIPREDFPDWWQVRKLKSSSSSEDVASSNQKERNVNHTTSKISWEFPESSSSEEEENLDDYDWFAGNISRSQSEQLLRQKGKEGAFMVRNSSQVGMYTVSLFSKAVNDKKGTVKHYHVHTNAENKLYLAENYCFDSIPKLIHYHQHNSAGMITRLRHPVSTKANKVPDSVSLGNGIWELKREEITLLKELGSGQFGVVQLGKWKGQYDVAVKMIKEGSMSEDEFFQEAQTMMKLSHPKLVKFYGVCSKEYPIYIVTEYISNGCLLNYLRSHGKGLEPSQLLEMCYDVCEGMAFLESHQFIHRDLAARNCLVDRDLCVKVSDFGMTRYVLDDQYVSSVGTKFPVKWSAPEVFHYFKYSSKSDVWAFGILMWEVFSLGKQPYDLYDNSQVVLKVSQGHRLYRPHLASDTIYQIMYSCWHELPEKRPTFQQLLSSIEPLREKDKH

For CCN1CCN(c2ccc(Nc3cc(-n4c(Nc5c(Cl)c(OC)cc(OC)c5Cl)nc5ccccc54)ncn3)cc2)CC1 [Example 1, N-(2,6-dichloro-3,5-dimethoxyphenyl)-1-(6-((4-(4-ethylpiperazin-1-yl)phenyl)amino)pyrimidin-4-yl)-1H-benz[d]imidazol-2-amine], the “microsomal stability (% at time)” value (microsomal stability; 0 min) was 100.00%, the “microsomal stability (% at time)” value (microsomal stability; 5 min) was 95.53% and the “microsomal stability (% at time)” value (microsomal stability; 10 min) was 88.45%. For the same compound, the “microsomal stability (% at time)” value (microsomal stability; 15 min) was 82.61%, the “microsomal stability (% at time)” value (microsomal stability; 30 min) was 65.16% and the “microsomal stability (% at time)” value (microsomal stability; 45 min) was 45.27%. The “microsomal stability (% at time)” value (microsomal stability; 60 min) was 44.31%, the half-life (microsomal stability; microsomes, Rat microsomal stability) was 39.6 min and the inhibition at 1 µM (HER2) was no less than 50%. For the same compound, the inhibition at 1 µM (FMS) was no less than 50%, the inhibition at 1 µM (FGFR1) was no less than 50% and the inhibition at 1 µM (SIK2) was no less than 50%. For the same compound, the inhibition at 1 µM (SIK3) was no less than 50%, the inhibition at 1 µM (FGFR2) was no less than 50% and the inhibition at 1 µM (BMX) was no less than 50%. It also gave an inhibition at 1 µM (FGFR4) of no less than 50%, an inhibition at 1 µM (FLT3) of no less than 50% and an inhibition at 1 µM (LCK) of no less than 50%. For the same compound, the inhibition at 1 µM (Hck) was no less than 50%, the inhibition at 1 µM (BLK) was no less than 50% and the inhibition at 1 µM (EGFR) was no less than 50%. For the same compound, the inhibition at 1 µM (DYRK1) was no less than 50%, the inhibition at 1 µM (ACK1) was no less than 50% and the inhibition at 1 µM (c-Kit) was no less than 50%. For the same compound, the inhibition at 1 µM (DDR1) was no less than 50%, the inhibition at 1 µM (c-Src) was no less than 50% and the inhibition at 1 µM (YES) was no less than 50%. The inhibition at 1 µM (TAOK2) was no less than 50%, the inhibition at 1 µM (TRKA) was no less than 50% and the inhibition at 1 µM (Fyn) was no less than 50%. It also gave an inhibition at 1 µM (LYN B) of no less than 50%, an inhibition at 1 µM (TNK1) of no less than 50% and an inhibition at 1 µM (LYN) of no less than 50%. For the same compound, the inhibition at 1 µM (MEKK2) was no less than 50%, the inhibition at 1 µM (FGFR3) was no less than 50% and the inhibition at 1 µM [1] was no less than 50%. The inhibition at 1 µM (TIE2) was no less than 50%, the inhibition at 1 µM (SIK1) was no less than 50% and the inhibition at 1 µM (ROS) was no less than 50%. For the same compound, the inhibition at 1 µM (DYRK1B) was no less than 50%, the inhibition at 1 µM (DDR2) was no less than 50% and the inhibition at 1 µM (ABL2) was no less than 50%. The inhibition at 1 µM (MEKK3) was no less than 50%, the inhibition at 1 µM (DYRK2) was no less than 50% and the inhibition at 1 µM (FLT4) was no less than 50%. For the same compound, the inhibition at 1 µM (ALK) was no less than 50%.

Reference: US9586936B2, “Heteroarylamine derivatives as protein kinase inhibitors” (KOREA INSTITUTE OF SCIENCE AND TECHNOLOGY, priority 2014, dated 2017)
